Assay results published in paper PMC11693508, “Pharmacokinetics, bioavailability, and tissue distribution of MRTX1133 in rats using UHPLC-MS/MS” (Frontiers in Pharmacology, 2024).
Read-outs that look alike come from different tables or passages of the source.

Assay: Tissue distribution in rats after single intravenous administration
Assay type: in vivo, Sprague-Dawley rats
Conditions: rat, intravenous 5 mg/kg; for concentration at 2 h: after 2 h; for concentration at 6 h: after 6 h
Experimental: The distribution of MRTX1133 in the tissues was performed using 25 rats with a single intravenous administration of MRTX1133 at 5 mg kg^-1. The blood samples were collected from abdominal aorta at 0.5 h, 1 h, 2 h, 6 h, and 24 h (five rats at each time point), then the organs such as the heart, liver, spleen, lung, kidney, intestine, and pancreas were immediately collected. The organs were washed with cold physiological saline (4°C), they were weighed and homogenized in cold saline solution (1:3, w/v). The homogenized samples were treated according to the method described in the sample preparation section. The excretion of MRTX1133 in the urine was also investigated by placing the rats in metabolic cages after intravenous administration of MRTX1133 at 5 mg kg^-1 (one rat in each cage), the urine and feces were collected at 2 h, 6 h and 24 h after administration (five rats at each time point), and the content of MRTX1133 in urine and feces was detected by the LC-MS method.

concentration at 2 h (Sprague-Dawley, heart, n = 5, read-out: highest concentration in heart): 879 ± 450 ng/g
concentration at 2 h (Sprague-Dawley, kidney, n = 5, read-out: highest concentration in kidney): 2580 ng/g
concentration at 1 h (Sprague-Dawley, liver, at 1 h, n = 5, read-out: highest concentration in liver): 5360 ng/g
concentration at 2 h (Sprague-Dawley, lung, n = 5, read-out: highest concentration in lung): 1230 ng/g
concentration at 6 h (Sprague-Dawley, pancreas, n = 5, read-out: highest concentration in pancreas): 156 ± 34.2 ng/g
concentration at 6 h (Sprague-Dawley, spleen, n = 5, read-out: highest concentration in spleen): 1860 ± 224 ng/g
detection in testis: no MRTX1133
detection in organs at 24 h (liver, kidney, lung, spleen, heart, pancreas (except intestine), 24 h): still detectable
tissue distribution (liver, kidney, lung, spleen, heart, pancreas, intestine): widely distributed
Compound: C#Cc1c(F)ccc2cc(O)cc(-c3ncc4c(N5CC6CCC(C5)N6)nc(OC[C@@]56CCCN5C[C@H](F)C6)nc4c3F)c12 [MRTX1133]
concentration in liver, spleen, kidney and lung compared with plasma (2 h after administration): higher than the concentration of the drug in plasma
